# From ChEMBL document CHEMBL1130134, “Synthesis of carboranes containing an azulene framework and in vitro evaluation as boron carriers” (J Med Chem, 1997)
# What was measured:
# B16 [1] = experiment: Boron incorporation into B-16 melanoma cells(1000000 cells) after 24 hours incubation (10.8 ug of B/mL).; assay type: functional, Mus musculus
# B16 [2] = experiment: Compound was tested for the in vitro growth inhibition of B-16 melanoma cells after incubation for 3 days (cytotoxicity), the dose that failed to inhibit cell growth by more than 50% was determined; assay type: functional, cell-based; conditions: Mus musculus, B16, 72 h
structure (smiles),measurement,setting,value
CC(C)(c1ccc(O)cc1)c1ccc(O)cc1 [BISPHENOL A],B incorporation,B16 [1],0.31 µg
same,IC50,B16 [2],8.6 mM
